Assay results published in paper PMC6320962, “Synthesis, Experimental and Density Functional Theory (DFT) Studies on Solubility of Camptothecin Derivatives” (Molecules, 2018).

Assays:
[1] = tested on: wild-type HIV-1; set-up: method as in PMID 21344906; conditions: cited from earlier work
[2] = clinical trial, early 1970s; cited from earlier work
[3] = in words; cited from earlier work

Cc1cc(/C=C/C#N)cc(C)c1Nc1ccnc(Nc2ccc(C#N)cc2)n1 [rilpivirine]
EC50 [1]: 0.67 nM

CC[C@@]1(O)C(=O)OCc2c1cc1n(c2=O)Cc2c-1nc1ccc(C3CCCCC3)cc1c2C [P210, 10-Cyclohexyl-7-methyl-20(S)-camptothecin]
melting point: 243 to 245 °C

CC[C@@]1(O)C(=O)OCc2c1cc1n(c2=O)Cc2c-1nc1ccc(N3CCOCC3)cc1c2C [P211, 7-Methyl-10-morpholino-20(S)-camptothecin]
melting point: 283 to 285 °C

CC[C@@](O)(C(=O)[O-])c1cc2n(c(=O)c1CO)Cc1cc3ccccc3nc1-2.[Na+] [compound 15]
efficacy [2]: low efficacy
side effects [2]: unpredictable and severe side effects, including hemorrhagic cystitis and myelotoxicity

CC[C@@]1(O)C(=O)OCc2c1cc1n(c2=O)Cc2cc3ccccc3nc2-1 [CPT, Camptothecin]
water solubility [3]: negligible water solubility
